Assay results published in article PMC10609114, “Melittin-Related Peptides Interfere with Sandfly Fever Naples Virus Infection by Interacting with Heparan Sulphate” (Microorganisms, 2023).
Peptide text beside a SMILES is read from it.

Experiments:
Vero cells = test: Cytotoxicity assay (MTT); format: cell-based; settings: 24 h at 37 °C, peptide 50 to 3.125 μM, triplicate
Experimental: Confluent Vero cells were treated with twofold serial dilutions of each peptide (50, 25, 12.5, 6.25, 3.125 μM). The 96-well plates were incubated at 37 °C/5% CO2 for 24 h; then, cell viability was analyzed by the 3-(4,5-Dimethylthiazol-2-yl)-2,5-Diphenyltetrazolium Bromide (MTT, Sigma-Aldrich, St. Louis, MO, USA) assay based on the reduction of the yellowish MTT to dark blue formazan salts. In brief, at the end of incubation, 100 μL of MTT solution (5 mg/mL) was incubated in each well for 3 h at 37 °C. Supernatant was removed and 100 μL of DMSO 100% (Sigma Aldrich) was added to dissolve formazan. Cytotoxicity was evaluated by spectrophotometric reading at 540 nm. Cell viability was calculated as a percentage of control cells. All experiments were performed in triplicate and means and standard deviations were reported. Nonlinear regression analysis was performed using GraphPad Prism software (version 8.0.1) to extract the CC50.
A preliminary experiment was carried out to evaluate the maximal non-cytotoxic concentration of RV-23 and AR-23. Twofold serial dilutions of each peptide were incubated with Vero cells for 24 h at 37 °C.
Figure 1 Cytotoxicity analysis after RV-23 and AR-23 treatment. Vero cells were treated with each peptide in the range of concentrations from 50 to 3.125 μM. After 24 h, MTT assay was carried out. Cell viability was calculated as a percentage of control cells. […]

SFNV [1] = test: Antiviral virus pre-treatment assay (CPE, crystal violet); format: cell-based, sandfly fever Naples virus; settings: peptide incubated with SFNV 1 h at 37 °C, mixture titrated on Vero cells, CPE after 5 days; read-out: inhibitory concentration of 50% (IC50), virus pre-treatment
Experimental: (§1) To analyze whether peptides were endowed with antiviral activity against SFNV, and, specifically, what stage of the infection was affected, different experimental procedures were carried out: (i) co-treatment assay: the cells (5 × 10^5/mL) were incubated with each peptide (at non-cytotoxic concentrations) and infected with the virus (200 TCID50/mL) at the same time (1 h at 37 °C); (ii) virus pre-treatment assay: […] and the mixture was subsequently titrated on cells; (iii) cell pre-treatment assay: cells were previously incubated with the peptide and then infected (1 h at 37 °C); (iv) post-treatment assay: peptide was incubated with the cells after the viral adsorption step (1 h at 37 °C). Following the incubation, the cell monolayer was rinsed three times with medium and than supplemented with DMEM 5% FBS. After 5 days post-infection, cythopathic effect (CPE) was observed and cells were stained with 0.5% crystal violet. All experiments were performed in triplicate. The inhibition rate of the infectivity was evaluated by CPE observed in the wells treated with the peptides to CPE in positive control (cells infected with virus, without peptide).
(§2) The difference between the assays was the timing of incubation of peptides on the cell monolayer. […]

SFNV [2] = test: Antiviral co-treatment assay (CPE, crystal violet); format: cell-based, sandfly fever Naples virus; settings: Vero cells, peptide and SFNV (200 TCID50/mL) added together 1 h at 37 °C, CPE after 5 days; read-out: inhibitory concentration of 50% (IC50), co-treatment
Experimental: as §1, §2

SFNV [3] = test: Heparin assay: neutralization of SFNV infection by heparin; format: cell-based, sandfly fever Naples virus; settings: Vero cells, heparin 266.7 to 0.26 μM with SFNV (200 TCID50/mL) 1 h at 37 °C, CPE after 5 days
Experimental: To analyze if heparin could neutralize the virus binding to cells, Vero were infected with SFNV (200 TCID50/mL) and simultaneously treated with serial heparin dilutions (1.56, […], 25, 100, 400, and 1600 μg/mL) for 1 h at 37 °C. Then, the cell monolayer was washed with medium and incubated in the presence of DMEM 5% FBS for 5 days until the CPE appeared. To analyze the simultaneous effect of heparin and each peptide against SFNV infection, a standard concentration of RV-23 or AR-23 (10 μM) was incubated together with the same above-mentioned heparin concentrations. At the same time, the virus (200 TCID50/mL) was added to cell monolayer and subsequently incubated for 1 h at 37 °C. The infection was observed after 5 days infection via CPE.
Phleboviruses use GAGs for the viral entry, including heparin and heparan sulphate (HS). […] Different concentrations of heparin were incubated with the virus during the adsorption phase, and after 5 days of infection, the CPE was analyzed (Figure 3A).
Figure 3 Heparin assay. […] Serial heparin concentrations were incubated with the virus and each peptide […] on Vero cells, and after 5 days of infection, CPE was analyzed by crystal violet staining. […]

Compound | Cytotoxicity (cell viability) in words (Vero cells) | IC50 (SFNV [1]) [µM] | IC50 (SFNV [2]) [µM] | Inhibition of SFNV infection by heparin (SFNV [3])
CC[C@H](C)[C@H](NC(=O)[C@H](C)N)C(=O)NCC(=O)N[C@@H](CO)C(=O)N[C@H](C(=O)N[C@@H](CC(C)C)C(=O)NCC(=O)N[C@@H](C)C(=O)N[C@@H](CC(C)C)C(=O)N[C@@H](C)C(=O)N[C@@H](CCCCN)C(=O)NCC(=O)N[C@@H](CC(C)C)C(=O)N1CCC[C@H]1C(=O)N[C@H](C(=O)N[C@@H](CC(C)C)C(=O)N[C@H](C(=O)N[C@@H](CO)C(=O)N[C@@H](Cc1c[nH]c2ccccc12)C(=O)N[C@H](C(=O)N[C@@H](CCCCN)C(=O)N[C@@H](CC(N)=O)C(=O)N[C@@H](CCCNC(=N)N)C(N)=O)[C@@H](C)CC)[C@@H](C)CC)[C@@H](C)O)[C@@H](C)CC [AR-23] (H-AIGSILGALAKGLPTLISWIKNR-NH2) | consistently affected cell viability at 50 μM | 10 | 12.5 | 
CC[C@H](C)[C@H](NC(=O)[C@@H](N)CCCNC(=N)N)C(=O)NCC(=O)N[C@H](C(=O)N[C@@H](CC(C)C)C(=O)N[C@@H](CC(C)C)C(=O)N[C@@H](C)C(=O)N[C@@H](CCCNC(=N)N)C(=O)N[C@@H](CC(C)C)C(=O)N1CCC[C@H]1C(=O)N[C@@H](CCCCN)C(=O)N[C@@H](CC(C)C)C(=O)N[C@@H](Cc1ccccc1)C(=O)N[C@@H](CO)C(=O)N[C@@H](CC(C)C)C(=O)N[C@@H](Cc1ccccc1)C(=O)N[C@@H](CCCCN)C(=O)N[C@@H](CC(C)C)C(=O)N[C@@H](CCSC)C(=O)NCC(=O)N[C@@H](CCCCN)C(=O)N[C@@H](CCCCN)C(=O)N[C@H](C(N)=O)C(C)C)C(C)C [RV-23] (H-RIGVLLARLPKLFSLFKLMGKKV-NH2) | not cytotoxic up to the highest dose | 6.25 | 10 | 
heparin |  |  |  | strongly blocked the viral infection up to 4.2 μM
